According to patent US20020137929A1, “1 - (3-heterocyclylphenyl) isothiourea, -isourea, -guanidine and -amidine herbicidal agents” (Intellectual Property Department, BASF Aktiengesellschaft, priority 1998, published 2002):

What was measured:
[1] = system: TRZAWR (Wheat, Winter, cv Riband); experiment: Preemergence herbicidal evaluation; assay type: in vivo, Triticum aestivum; settings: rated 4-5 weeks after treatment
Outline: (§1)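 Scores use a 0–9 visual scale covering stand, vigor, malformation, size and chlorosis relative to controls, rated four to five weeks after treatment. Before emergence, soil-planted seeds were sprayed with compound in aqueous acetone at roughly 0.0156–0.500 kg/ha and held in the greenhouse.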

MOOVA (Monochoria) = experiment: Postemergence weed control under flooded paddy conditions; assay type: in vivo, Monochoria vaginalis; settings: postemergence weeds
Outline: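 Herbicidal effect is judged by eye on a 0–9 scale versus control, 3–4 weeks after dosing. Dosing is into flood water kept 1.5–3 cm over the soil, at about 0.0313–0.500 kg/ha in aqueous/acetone 50/50 v/v, on 3–5 cm weeds and 1.5–2.5-leaf rice seedlings.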

CASOB (Sicklepod) = experiment: Postemergence herbicidal evaluation; assay type: in vivo, Cassia obtusifolia; settings: for CASOB herbicidal rating: postemergence
Outline: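 Seedlings grown about two weeks were sprayed at 40 psi with compound dispersed in 50/50 acetone/water plus 0.5% TWEEN 20, at about 0.0156 to 0.500 kg/ha. Plants were kept in the greenhouse and scored 4–5 weeks later on a 0–9 visual scale against untreated controls.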

[2] = system: SAGPY (Arrowhead (Pygmaea)); experiment: Preemergence weed control under flooded paddy conditions; assay type: in vivo, Sagittaria pygmaea; settings: rated 3-4 weeks after treatment
Outline: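 Herbicidal effect is scored visually on a 0-9 scale against an untreated control, three to four weeks after compounds are pipetted into the flood water (1.5 to 3 cm deep) over seeds planted in silt loam at 0.5 cm depth. Rates: about 0.0313 to 0.500 kg/ha.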

[3] = system: GLXMAW (Soybean, Williams); experiment: Preemergence herbicidal evaluation; assay type: in vivo, Glycine max, (L.) Merr. cv Williams; settings: rated 4-5 weeks after treatment
Outline: as §1

ORYSAT (Rice, Tebonnet) = experiment: Preemergence herbicidal evaluation; assay type: in vivo, Oryza sativa, (L.) Tebonnet; settings: rated 4-5 weeks after treatment
Outline: as §1

[4] = rate 0.0313 kg/ha, 3-4 weeks after treatment
[5] = rate 0.0625 kg/ha, 3-4 weeks after treatment
[6] = rate 0.1250 kg/ha, 3-4 weeks after treatment
[7] = rate 0.2500 kg/ha, 3-4 weeks after treatment

Structure (SMILES)	Herbicidal rating MOOVA (MOOVA (Monochoria); [4])	Herbicidal rating MOOVA (MOOVA (Monochoria); [5])	Herbicidal rating MOOVA (MOOVA (Monochoria); [6])	Herbicidal rating MOOVA (MOOVA (Monochoria); [7])	Herbicidal rating SAGPY ([2]; 0.0313 kg/ha)	Herbicidal rating SAGPY ([2]; 0.0625 kg/ha)	Herbicidal rating SAGPY ([2]; 0.1250 kg/ha)	Herbicidal rating SAGPY ([2]; 0.2500 kg/ha)	Preemergence herbicidal rating TRZAWR ([1]; rate 0.0313 kg/ha)	Preemergence herbicidal rating TRZAWR ([1]; rate 0.0625 kg/ha)	Preemergence herbicidal rating TRZAWR ([1]; rate 0.1250 kg/ha)	Preemergence herbicidal rating TRZAWR ([1]; rate 0.2500 kg/ha)	Postemergence herbicidal rating CASOB (CASOB (Sicklepod); Rate 0.0158 kg/ha)	Postemergence herbicidal rating CASOB (CASOB (Sicklepod); Rate 0.0315 kg/ha)	Preemergence herbicidal rating GLXMAW ([3]; rate 0.0625 kg/ha)	Preemergence herbicidal rating GLXMAW ([3]; rate 0.1250 kg/ha)	Preemergence herbicidal rating GLXMAW ([3]; rate 0.2500 kg/ha)	Preemergence herbicidal rating ORYSAT (ORYSAT (Rice, Tebonnet); rate 0.0625 kg/ha)	Preemergence herbicidal rating ORYSAT (ORYSAT (Rice, Tebonnet); rate 0.1250 kg/ha)	Preemergence herbicidal rating ORYSAT (ORYSAT (Rice, Tebonnet); rate 0.2500 kg/ha)	other results
CC1SC(=Nc2cc(-n3c(=O)cc(C(F)(F)F)n(C)c3=O)c(F)cc2Cl)N(C)C1=O (stereo not shown) [Compound 9]	9.0	9.0	9.0	9.0	0.0	0.0	1.0	2.0													TRZAWR preemergence herbicidal rating ([1]; rate 0.0156 kg/ha): 4.0; TRZAWR preemergence herbicidal rating ([1]; rate 0.0313 kg/ha): 7.0; TRZAWR preemergence herbicidal rating ([1]; rate 0.0625 kg/ha): 7.5; TRZAWR preemergence herbicidal rating ([1]; rate 0.1250 kg/ha): 9.0; TRZAWR preemergence herbicidal rating ([1]; rate 0.2500 kg/ha): 9.0; CASOB herbicidal rating (CASOB (Sicklepod); rate 0.0156 kg/ha): 0.0; CASOB herbicidal rating (CASOB (Sicklepod); rate 0.0313 kg/ha): 1.0; CASOB herbicidal rating (CASOB (Sicklepod); rate 0.0625 kg/ha): 2.0; CASOB herbicidal rating (CASOB (Sicklepod); rate 0.1250 kg/ha): 4.5; GLXMAW preemergence herbicidal rating ([3]; rate 0.0156 kg/ha): 4.0; GLXMAW preemergence herbicidal rating ([3]; rate 0.0313 kg/ha): 6.0; GLXMAW preemergence herbicidal rating ([3]; rate 0.0625 kg/ha): 6.3; GLXMAW preemergence herbicidal rating ([3]; rate 0.1250 kg/ha): 8.7; GLXMAW preemergence herbicidal rating ([3]; rate 0.2500 kg/ha): 9.0; ORYSAT preemergence herbicidal rating (ORYSAT (Rice, Tebonnet); rate 0.0156 kg/ha): 5.5; ORYSAT preemergence herbicidal rating (ORYSAT (Rice, Tebonnet); rate 0.0313 kg/ha): 8.5; ORYSAT preemergence herbicidal rating (ORYSAT (Rice, Tebonnet); rate 0.0625 kg/ha): 7.5; ORYSAT preemergence herbicidal rating (ORYSAT (Rice, Tebonnet); rate 0.1250 kg/ha): 9.0; ORYSAT preemergence herbicidal rating (ORYSAT (Rice, Tebonnet); rate 0.2500 kg/ha): 9.0
CCOC(=O)CN1C(=O)C(CC(=O)OC(C)C)SC1=Nc1cc(-n2c(=O)cc(C(F)(F)F)n(C)c2=O)c(F)cc1Cl (stereo not shown) [Compound 60, 2-{{2-Chloro-5-[3,6-dihydro-3-methyl-2,6-dioxo-4-(trifluoromethyl)-1(2H)-pyrimidinyl]-4-fluoro-phenyl}imino}-4-oxo-3,5-thiazolidinediacetic acid, 3-ethyl isopropyl ester]									0.0	0.0	1.0	1.0	0.0	0.0	1.5	3.0	3.5	0.0	0.5	2.0	Preemergence herbicidal rating TRZAWR ([1]; rate 0.0156 kg/ha): 0.0; Herbicidal rating MOOVA (MOOVA (Monochoria); Rate 0.0313 kg/ha, rated 3 to 4 weeks after treatment): 9.0; Herbicidal rating MOOVA (MOOVA (Monochoria); Rate 0.0625 kg/ha, rated 3 to 4 weeks after treatment): 9.0; Herbicidal rating MOOVA (MOOVA (Monochoria); Rate 0.1250 kg/ha, rated 3 to 4 weeks after treatment): 9.0; Herbicidal rating MOOVA (MOOVA (Monochoria); Rate 0.2500 kg/ha, rated 3 to 4 weeks after treatment): 9.0; Postemergence herbicidal rating CASOB (CASOB (Sicklepod); Rate 0.0630 kg/ha): 3.0; SAGPY herbicidal effect rating ([2]; 0.0313 kg/ha): 3.0; SAGPY herbicidal effect rating ([2]; 0.0625 kg/ha): 4.0; SAGPY herbicidal effect rating ([2]; 0.1250 kg/ha): 9.0; SAGPY herbicidal effect rating ([2]; 0.2500 kg/ha): 9.0; Preemergence herbicidal rating GLXMAW ([3]; rate 0.0156 kg/ha): 1.0; Preemergence herbicidal rating GLXMAW ([3]; rate 0.0313 kg/ha): 0.5; Preemergence herbicidal rating GLXMAW ([3]; rate 0.5000 kg/ha): 6.0; Preemergence herbicidal rating ORYSAT (ORYSAT (Rice, Tebonnet); rate 0.0156 kg/ha): 0.0; Preemergence herbicidal rating ORYSAT (ORYSAT (Rice, Tebonnet); rate 0.0313 kg/ha): 0.0; Preemergence herbicidal rating ORYSAT (ORYSAT (Rice, Tebonnet); rate 0.5000 kg/ha): 7.0
CCOC(=O)CN1C(=O)C(Cc2ccccc2OC(C)C(=O)OC)SC1=Nc1cc(-n2c(=O)cc(C(F)(F)F)n(C)c2=O)c(F)cc1Cl (stereo not shown) [Compound 50, 2-{{2-Chloro-5-[3,6-dihydro-3-methyl-2,6-dioxo-4-(trifluoromethyl)-1(2H)-pyrimidinyl]-4-fluoro-phenyl}imino}-5-(o-hydroxybenzyl)-4-oxo-3-thiazolidineacetic acid, ethyl ester, ester with methyl lactate]	0.0	0.0	3.0	7.0	2.0	2.0	3.0	3.0		0.0	0.0	0.0			0.0	0.0	0.0	0.0	0.0	0.0	Postemergence herbicidal rating CASOB (CASOB (Sicklepod); Rate 0.0156 kg/ha): 0.0; Postemergence herbicidal rating CASOB (CASOB (Sicklepod); Rate 0.0313 kg/ha): 1.0; Postemergence herbicidal rating CASOB (CASOB (Sicklepod); Rate 0.0625 kg/ha): 2.0
CCOC(=O)CN1C(=O)C(CC(=O)O)O/C1=N/c1cc(-n2c(=O)cc(C(F)(F)F)n(C)c2=O)c(F)cc1Cl (stereo not shown) [Compound 41, 2-{{2-Chloro-5-[3,6-dihydro-3-methyl-2,6-dioxo-4-(trifluoromethyl)-1(2H)-pyrimidinyl]-4-fluoro-phenyl}imino}-4-oxo-3,5-oxazolidinediacetic acid, 3-ethyl ester]	6.0	9.0	9.0	9.0	0.0	0.0	0.0	6.0	0.0	0.0	0.0	0.0	1.0	1.0	3.0	2.0	6.0	0.0	0.0	0.0	Preemergence herbicidal rating TRZAWR ([1]; rate 0.0156 kg/ha): 0.0; Postemergence herbicidal rating CASOB (CASOB (Sicklepod); Rate 0.0630 kg/ha): 5.0; Preemergence herbicidal rating GLXMAW ([3]; rate 0.0156 kg/ha): 0.0; Preemergence herbicidal rating GLXMAW ([3]; rate 0.0313 kg/ha): 1.0; Preemergence herbicidal rating ORYSAT (ORYSAT (Rice, Tebonnet); rate 0.0156 kg/ha): 0.0; Preemergence herbicidal rating ORYSAT (ORYSAT (Rice, Tebonnet); rate 0.0313 kg/ha): 0.0
Cn1c(C(F)(F)F)cc(=O)n(-c2cc(N=C3SCC(=O)N3[C@@H](Cc3ccccc3)C(=O)O)c(Cl)cc2F)c1=O [Compound 53, α-Benzyl-2-{{2-chloro-5-[3,6-dihydro-3-methyl-2,6-dioxo-4-(trifluoromethyl)-1(2H)-pyrimidinyl]-4-fluorophenyl}imino}-4-oxo-3-thiazolidineacetic acid, L-]	2.0	2.0	9.0	9.0	0.0	0.0	0.0	0.0	0.0	1.0	2.0	7.0	4.0	7.0	0.0	2.0	4.0	1.0	5.0	7.0	Postemergence herbicidal rating CASOB (CASOB (Sicklepod); Rate 0.0630 kg/ha): 9.0; Preemergence herbicidal rating GLXMAW ([3]; rate 0.0313 kg/ha): 0.0; Preemergence herbicidal rating ORYSAT (ORYSAT (Rice, Tebonnet); rate 0.0313 kg/ha): 0.0
